Six compounds from patent US20200360332A1, “COMPOUND FOR USE IN THE INCREASING OF MENTAL CAPACITY” (LEIBNIZ-INSTITUT FUER NEUROBIOLOGIE (LIN) STIFTUNG DES …, priority 2017, published 2020) can be followed below.

In experiment [1] the test system is Drosophila melanogaster larvae. As to the kind of experiment: Learning experiment E (scent/fructose reward) with Drosophila melanogaster larvae raised on feed mash containing the compound. Type of experiment: in vivo. Conditions: for improvement in learning capability compared with FSE-20 (summary statement): Drosophila larvae, effect of FSE-20>FSE-16>>FSE-8; for learning and memory capability P vs control K (Example 2): 7.1×10^−7 M (700 nM) final concentration in feed mash. The method, then:
Depicted in FIG. 1A is an overview of a learning experiment E with Drosophila melanogaster larvae. […] One group represents the control group K, which was raised with standard feed mash, and the three other groups were each raised with different concentrations of FSE-20 (7.1×10^−8, 7.1×10^−7, and 7.1×10^−6[M] FSE-20) in the feed mash. After 5 days (arrow with “5d”), the learning experiment E was carried out. In the learning experiment E, the animals were each subjected to one of two inverse training regimens A and then subjected to a test B. The first group I was presented in training A with a first scent with the feed reward (fructose), while a second scent was presented alone (first scent+/second scent). In FIG. 1A, the first scent is depicted as a white square and the second scent as a black square. […] The second group II was trained inversely (first scent/second scent+). In test B of the learning experiment E, it was subsequently examined whether the larvae of the two groups I, II prefer the first scent or the second scent in a selection situation and thus their learning and memory capability (performance index) P was determined. Shown in FIG. 2A is an overview with the compounds used in this example as additions to the feed mash. One group of the Drosophila melanogaster larvae was the control group K, which was raised with standard feed mash. Furthermore, one group was raised with FSE-20 in a concentration of 7.1×10^−7 M in the feed mash. The other groups were raised with a concentration of 7.1×10^−7 M of the different FSE-20 derivatives in the feed mash. These FSE-20 derivatives comprise FSE-8, FSE-12, FSE-16, 4OH-ZSE-20, and DH-FSE-20. After five days (arrow with “5d”), the Drosophila melanogaster larvae were tested in the learning experiment E, as described in Example 1.

Experiment [2] relates to hippocampal CA1 mouse cells. As to the kind of experiment: Ex vivo patch-clamp electrophysiological recordings on hippocampal CA1 pyramidal cells. Type of experiment: cell-based, mice. The following applies: for number of action potentials vs control K: current intensities of 40 to 440 pA. The method, then:
The patch-clamp method was carried out on whole CA1 pyramidal cells from “acute” (freshly prepared) hippocampus slices of four-to-six-week-old male mice in order to measure the effects of FSE-20 on neuronal excitability.
Shown are the action potentials of the control K as well as those of the cells treated with FSE-20.
Depicted in FIG. 5B is a graphic illustration in which the number of action potentials is shown in relation to the injected current intensity (pA) of the differently treated cells and of the control group K.
For orientation: The patch-clamp technique gives a direct electrical read-out from membranes.

The test system of another experiment is mice. In words: Learning experiment E in mice (conditioned fear, freezing) after intraperitoneal injection. The following applies: 6 mg/kg i.p. prior to training. Type of experiment: in vivo. The method, then:
In order to determine the effect of FSE-20 on the learning and memory capability P in 3- to 4-month-old mice, the animals underwent intraperitoneal injection with an FSE-20 solution (6 mg/kg body weight) prior to the training A. In the learning experiment E on the next day, the animals were placed in a specific environment during the training A, while the mice were subjected at the same time to an aversive electrical stimulus (lightning symbol). Subsequently, in the first test B-1 one day later (1 d), the nonspecific fear reaction (freezing) F was measured in a neutral environment, that is, in an environment that was new for the animals. In the second test B-2, two hours (2 h) after the first test B-1, the fear reaction in the environment was measured, in that the animals were presented with the electrical stimulus during the training A (conditioned environment).
Shown in FIG. 4B is a graphic illustration that summarizes the results of the learning experiment E on mice. […] The first span of time of the second test comprises the 1st-5th minute and the second span of time comprises the 6th-10th minute. The result of the first span of time is represented as black bars and the result of the second span of time is represented as white bars with black longitudinal stripes.

Experiment [3] has as its system older Drosophila melanogaster flies. In words: Learning experiment E with mature, older Drosophila melanogaster flies fed FSE-20. Type of experiment: in vivo. As to the method: In this experiment, the flies were divided into two groups, a control group K, which was fed with standard feed, and a test group, for which FSE-20 was added to the feed. The concentration of FSE-20in the feed was 7.1×10^−7 M. The flies were tested in a learning experiment E, corresponding to the principle of Example 1, 15 days (arrow with “15d”) after the adult animals had hatched.

Structures are written as SMILES.

On to `CCCCCCCCCCCCCCCCOC(=O)/C=C/c1ccc(O)c(OC)c1` [FSE-16, hexadecyl (2E)-3-(4-hydroxy-3-methoxyphenyl)prop-2-enoate], for which the “improvement in learning capability compared with FSE-20 (summary statement)” value in experiment [1] is “less pronounced”. Moreover, the “learning and memory capability P vs control K (Example 2)” value in experiment [1] (larvae, 5 days) was “increases learning”.
As for `CCCCCCCCCCCCCCCCCCCCOC(=O)CCc1ccc(O)c(OC)c1` [DH-FSE-20, icosyl 3-(4-hydroxy-3-methoxyphenyl)propanoate], in experiment [1], the “improvement in learning capability compared with FSE-20 (summary statement)” value was “less pronounced”. Also, the “learning and memory capability P vs control K (Example 2)” value in experiment [1] (larvae, 5 days) was “increases learning and memory”.
On to `CCCCCCCCCCCCOC(=O)/C=C/c1ccc(O)c(OC)c1` [FSE-12, dodecyl (2E)-3-(4-hydroxy-3-methoxyphenyl)prop-2-enoate], for which the “learning and memory capability P vs control K (Example 2)” value in experiment [1] (larvae, 5 days) is reported as “slight increase”.
On to `CCCCCCCCCCCCCCCCCCCCOC(=O)/C=C/c1ccc(O)cc1` [4OH-ZSE-20, icosyl (2E)-3-(4-hydroxyphenyl)prop-2-enoate], for which, in experiment [1], the “improvement in learning capability compared with FSE-20 (summary statement)” value was “weaker, but still marked activity”. Also, the “learning and memory capability P vs control K (Example 2)” value in experiment [1] (larvae, 5 days) is reported as “slight increase”.
As for `CCCCCCCCOC(=O)/C=C/c1ccc(O)c(OC)c1` [FSE-8, octyl (2E)-3-(4-hydroxy-3-methoxyphenyl)prop-2-enoate], in experiment [1], the “improvement in learning capability compared with FSE-20 (summary statement)” value is on record as “less pronounced”. Moreover, the “learning and memory capability P vs control K (Example 2)” value in experiment [1] (larvae, 5 days) was “increases the learning and memory capability P”.
Turning to `CCCCCCCCCCCCCCCCCCCCOC(=O)/C=C/c1ccc(O)c(OC)c1` [FSE-20, icosyl (2E)-3-(4-hydroxy-3-methoxyphenyl)prop-2-enoate], the “number of action potentials vs control K” value in experiment [2] (1 μM) and in experiment [2] (4 μM) was “increased significantly” in each case. The “excitability of pyramidal CA1 hippocampus cells” value in experiment [2] (ex vivo, summary statement) was “increases in a dose-dependent manner”. In addition, the “fear behavior (freezing) F in second half (6th-10th minute) compared with first half (1st-5th minute)” value in the experiment with mice (mice 3-4 months, second test B-2, conditioned environment) is “just as strongly pronounced”. Moreover, in the experiment with mice (mice), the “memory stability vs control” value is given as “more stable memory over time”. For the same compound, in experiment [3] (7.1×10^−7 M in feed, tested 15 days after hatching), the “improvement of learning and memory capability P in older animals” value is recorded as “approximately 50%”. Besides, in experiment [3] (FSE-20 in feed), the “learning capability of older flies (summary statement)” value is recorded as “doubled”. For the same compound, the “learning and memory capability of larvae (summary statement)” value in experiment [1] (added to feed of larvae) was “significantly in a dose-dependent manner”. Besides, in experiment [1] (in feed mash), the “concentration at which an effect is seen” value came to 700 nM. Also, the “improvement of learning and memory capability P” value in experiment [1] (larvae, 700 nM in feed mash, 5 days) is given as “approximately 50%”. In addition, the “learning and memory capability P vs control K (Example 2)” value in experiment [1] (larvae, 5 days) is “marked increase”. Also, the “learning and memory capability P (performance index) vs control K” value in experiment [1] (larvae, 7.1×10^−8, 7.1×10^−7 or 7.1×10^−6 M in feed mash, 5 days) was “increased”. For the same compound, the “learning and memory capability P” value was “declines once again” in experiment [1] (larvae, very high concentrations starting at 7 μM in feed mash, 5 days) and “increase in learning tendency” in experiment [1] (larvae, very low concentration, 70 nM in feed mash, 5 days).
